What is called pEC50 is −log10 of the EC50, conventionally taken in molar units.

pEC50: −log10 of the molar value. Residues, ends and D or L forms follow the SMILES beside them. Bounds are passed on as bounds.

Holding throughout (format): cell-based
The target of assay [1] is T1, human NMUR2 receptor (Homo sapiens, UniProt Q9GZQ4). Nature of the assay: IP1 Gq HTRF assay, activation of human NMUR2 in buffer. Set-up: expressed in transfected cells; host or cells: CHO-K1. The following applies: CHO-K1 cells expressing human NMUR2, stimulation buffer with 0.1% BSA; read-out: EC50 (hNMUR2) buffer. The method in brief:
(§1)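 CHO-K1 cells stably expressing human NMUR1 or NMUR2, seeded 24 h before assay, stimulated with peptide agonists (8-point dose-response, 1% DMSO final) in HEPES/HBSS buffer with 50 mM LiCl and 0.1% BSA, pH 7.4, 1 h at 37 °C. IP1 accumulation read by HTRF competition (665/620 nm); EC50 from 4-parameter sigmoidal fit.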

For assay [2], the target named is T2, human NMUR1 receptor (Homo sapiens, UniProt Q9HB89).
T2 construct: expressed in transfected cells; host or cells: CHO-K1
T2 sequence (Q9HB89 1-426): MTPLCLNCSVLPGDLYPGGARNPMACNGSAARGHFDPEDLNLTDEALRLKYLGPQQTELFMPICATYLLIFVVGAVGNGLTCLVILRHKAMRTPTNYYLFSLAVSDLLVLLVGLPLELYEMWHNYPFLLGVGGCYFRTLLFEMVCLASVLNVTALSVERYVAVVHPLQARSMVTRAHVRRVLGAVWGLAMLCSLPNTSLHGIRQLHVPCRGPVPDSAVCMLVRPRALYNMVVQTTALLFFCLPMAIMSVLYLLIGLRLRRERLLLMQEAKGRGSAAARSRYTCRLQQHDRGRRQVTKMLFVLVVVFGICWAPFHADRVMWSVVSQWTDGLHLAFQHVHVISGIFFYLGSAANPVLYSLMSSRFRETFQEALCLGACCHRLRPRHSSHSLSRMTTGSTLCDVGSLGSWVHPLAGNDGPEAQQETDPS
Nature of the assay: IP1 Gq HTRF assay, activation of human NMUR1 in buffer. The following applies: CHO-K1 cells expressing human NMUR1, stimulation buffer with 0.1% BSA; read-out: EC50 (hNMUR1) buffer. The method, boiled down:
as §1

The target in assay [3] is T1, human NMUR2 receptor. Nature of the assay: IP1 Gq HTRF assay, activation of human NMUR2 in human plasma. The following applies: CHO-K1 cells expressing human NMUR2, 100% human plasma; read-out: EC50 (hNMUR2) human plasma. Set-up: expressed in transfected cells; host or cells: CHO-K1. The method, boiled down: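 CHO-K1 cells stably expressing human NMUR2 exposed to peptide agonists (8-point dose-response) in 100% human plasma with 50 mM LiCl, 1% DMSO, for 1 h at 37° C. IP1 accumulation read by HTRF competition (665/620 nm ratio). EC50 from 4-parameter sigmoidal fit.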

T1 sequence (Q9GZQ4 whole entry): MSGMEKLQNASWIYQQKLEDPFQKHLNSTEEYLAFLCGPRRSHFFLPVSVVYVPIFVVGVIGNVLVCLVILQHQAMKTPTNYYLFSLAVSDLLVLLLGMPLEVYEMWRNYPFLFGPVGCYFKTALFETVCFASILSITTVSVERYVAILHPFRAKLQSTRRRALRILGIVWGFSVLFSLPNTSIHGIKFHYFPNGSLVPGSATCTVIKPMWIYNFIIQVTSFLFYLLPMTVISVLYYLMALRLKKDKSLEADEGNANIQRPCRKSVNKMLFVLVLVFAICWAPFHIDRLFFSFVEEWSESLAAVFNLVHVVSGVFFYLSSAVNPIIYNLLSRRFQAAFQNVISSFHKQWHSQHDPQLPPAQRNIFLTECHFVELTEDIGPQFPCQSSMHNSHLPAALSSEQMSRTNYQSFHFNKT

For the molecule `CCCC[C@H](NC(=O)[C@H](CC(C)C)N(C)C(=O)[C@H](Cc1ccccc1)NC(=O)[C@H](Cc1ccc(O)cc1)NC(=O)CN1CCN(CCNC(=O)CN(C)C(=O)CN(C)C(=O)CN(C)C(=O)CN(C)C(=O)CN(C)C(=O)CN(C)C(=O)CN(C)C(=O)CN(C)C(=O)CN(C)C(=O)CN(C)C(=O)CN(C)C(=O)CN(C)C(=O)CC[C@H](NC(=O)CC[C@H](NC(=O)CC[C@H](NC(=O)CCCCCCCCCCCCCCCCCCC(=O)O)C(=O)O)C(=O)O)C(=O)O)CC1)C(=O)N[C@@H](CCN)C(=O)N(C)[C@@H](C)C(=O)N[C@@H](CCCNC(=N)N)C(=O)NCC(N)=O` [Compound 59, C20DA-gGlu3-Sar12-AEPipAc-Tyr-Phe-NMeLeu-Nle-Dbu-NMeAla-Arg-Gly-NH2], the pEC50 is 8.30 in assay [1], less than 6.00 in assay [2] and 7.92 in assay [3].

For the molecule `CCCC[C@H](NC(=O)[C@H](CC(C)C)N(C)C(=O)[C@H](Cc1ccccc1)NC(=O)[C@H](Cc1ccc(O)cc1)NC(=O)CN1CCN(CCNC(=O)CN(C)C(=O)CN(C)C(=O)CN(C)C(=O)CN(C)C(=O)CN(C)C(=O)CN(C)C(=O)CN(C)C(=O)CN(C)C(=O)CN(C)C(=O)CC[C@H](NC(=O)CC[C@H](NC(=O)CC[C@H](NC(=O)CCCCCCCCCCCCCCCCCCC(=O)O)C(=O)O)C(=O)O)C(=O)O)CC1)C(=O)N[C@@H](CCN)C(=O)N1CCC[C@H]1C(=O)N[C@@H](CCCNC(=N)N)C(=O)NCC(N)=O` [Compound 60, C20DA-gGlu3-Sar9-AEPipAc-Tyr-Phe-NMeLeu-Nle-Dbu-Pro-Arg-Gly-NH2] (HELM PEPTIDE1{[O=C(O)CCCCCCCCCCCCCCCCCCC(=O)[*:2]].[gGlu].[gGlu].[gGlu].[Sar].[Sar].[Sar].[Sar].[Sar].[Sar].[Sar].[Sar].[Sar].[O=C(CN1CCN(CCN[*:1])CC1)[*:2]].Y.F.[meL].[Nle].[Dab].P.R.G.[am]}$$$$V2.0), the values for the negative-log EC50 (pEC50) in assay [1], in assay [2] and in assay [3] were 8.40, 6.27 and 7.86, respectively.

`CCCC[C@H](NC(=O)[C@H](CC(C)C)N(C)C(=O)[C@H](Cc1ccccc1)NC(=O)[C@H](Cc1ccc(O)cc1)NC(=O)CN1CCN(CCNC(=O)CN(C)C(=O)CN(C)C(=O)CN(C)C(=O)CN(C)C(=O)CN(C)C(=O)CN(C)C(=O)CN(C)C(=O)CN(C)C(=O)CN(C)C(=O)CC[C@H](NC(=O)CC[C@H](NC(=O)CC[C@H](NC(=O)CCCCCCCCCCCCCCCCCCC(=O)O)C(=O)O)C(=O)O)C(=O)O)CC1)C(=O)N[C@@H](CCN)C(=O)N(C)[C@@H](C)C(=O)N[C@@H](CCCNC(=N)N)C(=O)NCC(N)=O` [Compound 61, C20DA-gGlu3-Sar9-AEPipAc-Tyr-Phe-NMeLeu-Nle-Dbu-NMeAla-Arg-Gly-NH2] (HELM PEPTIDE1{[O=C(O)CCCCCCCCCCCCCCCCCCC(=O)[*:2]].[gGlu].[gGlu].[gGlu].[Sar].[Sar].[Sar].[Sar].[Sar].[Sar].[Sar].[Sar].[Sar].[O=C(CN1CCN(CCN[*:1])CC1)[*:2]].Y.F.[meL].[Nle].[Dab].[meA].R.G.[am]}$$$$V2.0): the figures for the pEC50 in assay [1], in assay [2] and in assay [3] were 8.34, less than 6.00 and 7.85, respectively.

For the molecule `CCCC[C@H](NC(=O)[C@H](CC(C)C)N(C)C(=O)[C@H](Cc1ccccc1)NC(=O)[C@H](Cc1ccc(O)cc1)NC(=O)CN1CCN(CCNC(=O)CN(C)C(=O)CN(C)C(=O)CN(C)C(=O)CN(C)C(=O)CN(C)C(=O)CN(C)C(=O)CN(C)C(=O)CN(C)C(=O)CN(C)C(=O)CC[C@H](NC(=O)CC[C@H](NC(=O)CC[C@H](NC(=O)CCCCCCCCCCCCCCCCCCC(=O)O)C(=O)O)C(=O)O)C(=O)O)CC1)C(=O)N[C@@H](CCCNC(=N)N)C(=O)N(C)[C@@H](C)C(=O)N[C@@H](CCCNC(=N)N)C(=O)NCC(N)=O` [Compound 62, C20DA-gGlu3-Sar9-AEPipAc-Tyr-Phe-NMeLeu-Nle-Arg-NMeAla-Arg-Gly-NH2] (HELM PEPTIDE1{[O=C(O)CCCCCCCCCCCCCCCCCCC(=O)[*:2]].[gGlu].[gGlu].[gGlu].[Sar].[Sar].[Sar].[Sar].[Sar].[Sar].[Sar].[Sar].[Sar].[O=C(CN1CCN(CCN[*:1])CC1)[*:2]].Y.F.[meL].[Nle].R.[meA].R.G.[am]}$$$$V2.0), the negative logarithm of the EC50 (pEC50) was 8.51 in assay [1], 6.36 in assay [2] and 7.85 in assay [3].

For the molecule `CCCC[C@H](NC(=O)[C@H](CC(C)C)N(C)C(=O)[C@H](Cc1ccccc1)NC(=O)[C@H](Cc1ccc(O)cc1)NC(=O)CN1CCN(CCNC(=O)CN(C)C(=O)CN(C)C(=O)CN(C)C(=O)CN(C)C(=O)CN(C)C(=O)CN(C)C(=O)CC[C@H](NC(=O)CC[C@H](NC(=O)CCCCCCCCCCCCCCCCC(=O)O)C(=O)O)C(=O)O)CC1)C(=O)N[C@@H](CCCNC(=N)N)C(=O)N1CCC[C@H]1C(=O)N[C@@H](CCCNC(=N)N)C(=O)NCC(N)=O` [Compound 71, C18DA-gGlu2-Sar6-AEPipAc-Tyr-Phe-NMeLeu-Nle-Arg-Pro-Arg-Gly-NH2] (HELM PEPTIDE1{[O=C(O)CCCCCCCCCCCCCCCCC(=O)[*:2]].[gGlu].[gGlu].[Sar].[Sar].[Sar].[Sar].[Sar].[Sar].[O=C(CN1CCN(CCN[*:1])CC1)[*:2]].Y.F.[meL].[Nle].R.P.R.G.[am]}$$$$V2.0), the pEC50 in assay [1] was 8.82; in assay [2] it was 6.89; in assay [3], 7.84.

In the case of `CCCC[C@H](NC(=O)[C@H](CC(C)C)N(C)C(=O)[C@H](Cc1ccccc1)NC(=O)[C@H](Cc1ccc(O)cc1)NC(=O)CN1CCN(CCNC(=O)CN(C)C(=O)CN(C)C(=O)CN(C)C(=O)CN(C)C(=O)CN(C)C(=O)CN(C)C(=O)CN(C)C(=O)CN(C)C(=O)CN(C)C(=O)CC[C@H](NC(=O)CC[C@H](NC(=O)CC[C@H](NC(=O)CCCCCCCCCCCCCCCCC(=O)O)C(=O)O)C(=O)O)C(=O)O)CC1)C(=O)N[C@@H](CCCNC(=N)N)C(=O)N(C)[C@@H](C)C(=O)N[C@@H](CCCNC(=N)N)C(=O)NCC(N)=O` [Compound 73, C18DA-gGlu3-Sar9-AEPipAc-Tyr-Phe-NMeLeu-Nle-Arg-NMeAla-Arg-Gly-NH2] (HELM PEPTIDE1{[O=C(O)CCCCCCCCCCCCCCCCC(=O)[*:2]].[gGlu].[gGlu].[gGlu].[Sar].[Sar].[Sar].[Sar].[Sar].[Sar].[Sar].[Sar].[Sar].[O=C(CN1CCN(CCN[*:1])CC1)[*:2]].Y.F.[meL].[Nle].R.[meA].R.G.[am]}$$$$V2.0), the figures for the pEC50 in assay [1], in assay [2] and in assay [3] were 8.72, 6.27 and 7.81, respectively.

As for `CCCC[C@H](NC(=O)[C@H](CC(C)C)N(C)C(=O)[C@H](Cc1ccccc1)NC(=O)[C@H](Cc1ccc(O)cc1)NC(=O)CN1CCN(C(=O)CN(C)C(=O)CN(C)C(=O)CN(C)C(=O)CN(C)C(=O)CN(C)C(=O)CN(C)C(=O)CN(C)C(=O)CN(C)C(=O)CN(C)C(=O)CN(C)C(=O)CN(C)C(=O)CN(C)C(=O)CN(C)C(=O)CN(C)C(=O)CN(C)C(=O)CC[C@H](NC(=O)CC[C@H](NC(=O)CC[C@H](NC(=O)CCCCCCCCCCCCCCCCC(=O)O)C(=O)O)C(=O)O)C(=O)O)CC1)C(=O)N[C@@H](CCCNC(=N)N)C(=O)N1CCC[C@H]1C(=O)N[C@@H](CCCNC(=N)N)C(=O)NCC(N)=O` [Compound 75, C18DA-gGlu3-Sar15-PipAc-Tyr-Phe-NMeLeu-Nle-Arg-Pro-Arg-Gly-NH2] (HELM PEPTIDE1{[O=C(O)CCCCCCCCCCCCCCCCC(=O)[*:2]].[gGlu].[gGlu].[gGlu].[Sar].[Sar].[Sar].[Sar].[Sar].[Sar].[Sar].[Sar].[Sar].[Sar].[Sar].[Sar].[Sar].[Sar].[Sar].[O=C(CN1CCN([*:1])CC1)[*:2]].Y.F.[meL].[Nle].R.P.R.G.[am]}$$$$V2.0), the pEC50 in assay [1] is 9.15; in assay [2], 6.89; in assay [3], 8.46.

On to `CCCC[C@H](NC(=O)[C@H](CC(C)C)N(C)C(=O)[C@H](Cc1ccccc1)NC(=O)[C@H](Cc1ccc(O)cc1)NC(=O)CN1CCN(C(=O)CN(C)C(=O)CN(C)C(=O)CN(C)C(=O)CN(C)C(=O)CN(C)C(=O)CN(C)C(=O)CN(C)C(=O)CN(C)C(=O)CN(C)C(=O)CN(C)C(=O)CN(C)C(=O)CN(C)C(=O)CN(C)C(=O)CN(C)C(=O)CN(C)C(=O)CC[C@H](NC(=O)CC[C@H](NC(=O)CC[C@H](NC(=O)CCCCCCCCCCCCCCCCC(=O)O)C(=O)O)C(=O)O)C(=O)O)CC1)C(=O)N[C@@H](CCN)C(=O)N1CCC[C@H]1C(=O)N[C@@H](CCCNC(=N)N)C(=O)NCC(N)=O` [Compound 76, C18DA-gGlu3-Sar15-PipAc-Tyr-Phe-NMeLeu-Nle-Dbu-Pro-Arg-Gly-NH2] (HELM PEPTIDE1{[O=C(O)CCCCCCCCCCCCCCCCC(=O)[*:2]].[gGlu].[gGlu].[gGlu].[Sar].[Sar].[Sar].[Sar].[Sar].[Sar].[Sar].[Sar].[Sar].[Sar].[Sar].[Sar].[Sar].[Sar].[Sar].[O=C(CN1CCN([*:1])CC1)[*:2]].Y.F.[meL].[Nle].[Dab].P.R.G.[am]}$$$$V2.0), for which the pEC50 in assay [1] is 8.96; in assay [2], 5.96; in assay [3] it was 8.21.

For the origin of these results see patent US20240279278A1, “NMU RECEPTOR 2 AGONISTS” (Boehringer Ingelheim International GmbH, priority 2023, published 2024).
